In patent publication US20260028365A1 (BIOGEN MA INC., priority 2022, published 2026):

Columns and labels:
JH2 domain of human Tyk2 = JH2 domain of human Tyk2 (Homo sapiens (Human), UniProt P29597); test: JH2 Biochemical Assay (TR-FRET probe displacement); assay type: binding; conditions: JH2 domain of human Tyk2, TR-FRET probe displacement
JAK2 = JAK2 (Homo sapiens (Human), UniProt O60674); test: pSTAT5 Cell Assay (MSD, TF1 cells); assay type: cell-based; conditions: IL-3 stimulated, MSD
In short: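 Serum-starved TF1 cells were pretreated with compound for 1 h (10-point four-fold series from 10 μM), then stimulated with 30 ng/mL IL-3 for 15 min. pSTAT5 in lysates was measured by MSD immunoassay. IC50 came from a 4-parameter logistic fit.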

Tyk2 = Tyk2 (Homo sapiens (Human), UniProt P29597); test: pSTAT4 Cell Assay (MSD, NK92 cells); assay type: cell-based; conditions: MSD
JAK1 = JAK1 (Homo sapiens (Human), UniProt P23458); test: pSTAT3 Cell Assay (MSD, TF1 cells); assay type: cell-based; conditions: IL-6 stimulated, MSD
In short: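 Serum starvation, 1 h compound (10 pt, 4-fold from 10 μM), IL-6 15 min, lysis. pSTAT3 read by MSD immunoassay, anti-STAT3 Abs. Normalized % activity vs log[cpd], 4-PL fit → IC50.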

Chain of JAK1 (P23458 whole entry): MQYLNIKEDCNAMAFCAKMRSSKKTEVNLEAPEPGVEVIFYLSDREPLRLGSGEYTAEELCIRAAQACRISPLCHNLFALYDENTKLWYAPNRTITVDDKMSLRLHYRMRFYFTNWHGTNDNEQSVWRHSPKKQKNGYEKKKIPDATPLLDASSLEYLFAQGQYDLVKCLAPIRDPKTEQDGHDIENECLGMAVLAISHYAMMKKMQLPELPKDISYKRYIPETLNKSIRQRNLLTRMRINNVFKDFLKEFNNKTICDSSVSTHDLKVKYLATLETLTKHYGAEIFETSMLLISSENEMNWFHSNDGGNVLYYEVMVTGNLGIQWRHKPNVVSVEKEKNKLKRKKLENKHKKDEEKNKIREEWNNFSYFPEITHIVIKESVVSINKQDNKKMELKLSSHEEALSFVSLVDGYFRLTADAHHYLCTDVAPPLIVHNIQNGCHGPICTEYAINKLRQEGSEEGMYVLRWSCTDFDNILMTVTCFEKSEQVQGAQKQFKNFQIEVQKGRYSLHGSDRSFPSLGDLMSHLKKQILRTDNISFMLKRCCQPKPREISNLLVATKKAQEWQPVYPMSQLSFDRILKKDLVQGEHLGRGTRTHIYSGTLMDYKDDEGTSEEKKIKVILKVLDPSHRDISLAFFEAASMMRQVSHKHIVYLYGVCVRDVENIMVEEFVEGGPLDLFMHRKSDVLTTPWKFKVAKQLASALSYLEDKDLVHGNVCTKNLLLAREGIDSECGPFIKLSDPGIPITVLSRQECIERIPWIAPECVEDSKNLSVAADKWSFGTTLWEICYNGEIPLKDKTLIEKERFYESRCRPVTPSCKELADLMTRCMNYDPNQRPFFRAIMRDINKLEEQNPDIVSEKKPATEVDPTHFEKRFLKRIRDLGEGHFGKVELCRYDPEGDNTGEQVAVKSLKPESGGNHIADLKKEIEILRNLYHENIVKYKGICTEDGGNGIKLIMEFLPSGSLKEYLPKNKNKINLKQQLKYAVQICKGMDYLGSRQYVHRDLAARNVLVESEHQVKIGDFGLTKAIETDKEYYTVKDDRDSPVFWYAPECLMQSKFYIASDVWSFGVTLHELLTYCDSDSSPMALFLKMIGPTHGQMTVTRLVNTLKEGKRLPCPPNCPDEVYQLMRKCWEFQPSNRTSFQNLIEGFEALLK
Chain of Tyk2 (P29597 whole entry): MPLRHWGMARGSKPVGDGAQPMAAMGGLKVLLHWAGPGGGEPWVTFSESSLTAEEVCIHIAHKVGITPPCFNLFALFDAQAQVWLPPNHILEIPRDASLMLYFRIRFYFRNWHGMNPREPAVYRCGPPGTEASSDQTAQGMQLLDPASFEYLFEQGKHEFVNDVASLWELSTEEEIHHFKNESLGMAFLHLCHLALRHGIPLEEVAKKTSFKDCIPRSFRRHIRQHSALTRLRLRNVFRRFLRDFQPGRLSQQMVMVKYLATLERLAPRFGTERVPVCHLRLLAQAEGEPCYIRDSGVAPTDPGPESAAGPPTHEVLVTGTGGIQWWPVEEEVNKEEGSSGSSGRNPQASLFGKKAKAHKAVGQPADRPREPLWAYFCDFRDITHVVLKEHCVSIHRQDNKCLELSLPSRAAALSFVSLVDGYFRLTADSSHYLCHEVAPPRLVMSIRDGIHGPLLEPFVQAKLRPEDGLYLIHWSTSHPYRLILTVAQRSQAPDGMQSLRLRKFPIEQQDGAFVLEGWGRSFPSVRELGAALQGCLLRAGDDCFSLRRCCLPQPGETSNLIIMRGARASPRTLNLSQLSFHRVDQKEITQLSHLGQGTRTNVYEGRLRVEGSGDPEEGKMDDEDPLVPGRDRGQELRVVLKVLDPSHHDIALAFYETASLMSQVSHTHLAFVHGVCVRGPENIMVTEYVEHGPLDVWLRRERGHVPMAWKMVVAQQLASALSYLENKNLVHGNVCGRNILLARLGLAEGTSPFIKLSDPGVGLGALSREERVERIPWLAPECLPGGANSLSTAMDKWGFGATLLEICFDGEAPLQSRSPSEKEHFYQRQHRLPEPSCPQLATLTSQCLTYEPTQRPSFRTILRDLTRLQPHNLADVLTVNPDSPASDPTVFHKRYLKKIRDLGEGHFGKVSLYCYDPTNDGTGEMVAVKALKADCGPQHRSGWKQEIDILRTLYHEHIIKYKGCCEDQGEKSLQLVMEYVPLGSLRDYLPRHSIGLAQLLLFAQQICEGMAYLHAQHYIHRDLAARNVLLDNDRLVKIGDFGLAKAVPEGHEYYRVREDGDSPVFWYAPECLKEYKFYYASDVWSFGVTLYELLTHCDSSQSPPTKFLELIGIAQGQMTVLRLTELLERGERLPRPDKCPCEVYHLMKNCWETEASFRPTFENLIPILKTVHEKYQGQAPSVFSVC
Chain of JAK2 (O60674 whole entry): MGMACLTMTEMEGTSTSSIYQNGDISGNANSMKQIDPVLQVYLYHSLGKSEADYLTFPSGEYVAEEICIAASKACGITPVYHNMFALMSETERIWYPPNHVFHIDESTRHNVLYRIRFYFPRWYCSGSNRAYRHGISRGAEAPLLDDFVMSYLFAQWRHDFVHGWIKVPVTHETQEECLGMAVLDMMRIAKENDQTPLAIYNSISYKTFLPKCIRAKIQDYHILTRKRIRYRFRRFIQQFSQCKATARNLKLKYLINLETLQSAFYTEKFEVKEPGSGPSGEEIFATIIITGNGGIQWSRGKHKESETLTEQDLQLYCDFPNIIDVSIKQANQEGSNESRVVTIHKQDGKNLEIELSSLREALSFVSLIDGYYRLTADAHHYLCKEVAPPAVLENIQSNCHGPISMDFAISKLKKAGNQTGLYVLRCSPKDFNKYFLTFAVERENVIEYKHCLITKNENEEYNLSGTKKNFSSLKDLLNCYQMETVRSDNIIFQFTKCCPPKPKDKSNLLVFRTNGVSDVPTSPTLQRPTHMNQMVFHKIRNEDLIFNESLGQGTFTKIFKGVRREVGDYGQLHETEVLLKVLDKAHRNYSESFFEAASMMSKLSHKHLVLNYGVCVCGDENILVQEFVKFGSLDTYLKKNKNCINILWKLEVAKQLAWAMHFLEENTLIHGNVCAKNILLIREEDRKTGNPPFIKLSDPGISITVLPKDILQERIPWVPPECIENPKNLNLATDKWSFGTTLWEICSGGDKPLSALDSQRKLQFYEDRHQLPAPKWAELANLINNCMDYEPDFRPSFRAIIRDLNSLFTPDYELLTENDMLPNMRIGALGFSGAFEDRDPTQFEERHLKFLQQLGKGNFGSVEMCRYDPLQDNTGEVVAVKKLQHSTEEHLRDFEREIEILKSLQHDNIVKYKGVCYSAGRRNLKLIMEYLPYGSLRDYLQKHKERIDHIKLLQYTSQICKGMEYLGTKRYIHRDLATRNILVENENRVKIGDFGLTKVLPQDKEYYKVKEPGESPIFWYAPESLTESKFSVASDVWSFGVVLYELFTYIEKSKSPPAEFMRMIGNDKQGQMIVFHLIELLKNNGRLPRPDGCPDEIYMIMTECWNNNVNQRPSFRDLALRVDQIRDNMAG
Chain of JH2 domain of human Tyk2 (P29597 575-876): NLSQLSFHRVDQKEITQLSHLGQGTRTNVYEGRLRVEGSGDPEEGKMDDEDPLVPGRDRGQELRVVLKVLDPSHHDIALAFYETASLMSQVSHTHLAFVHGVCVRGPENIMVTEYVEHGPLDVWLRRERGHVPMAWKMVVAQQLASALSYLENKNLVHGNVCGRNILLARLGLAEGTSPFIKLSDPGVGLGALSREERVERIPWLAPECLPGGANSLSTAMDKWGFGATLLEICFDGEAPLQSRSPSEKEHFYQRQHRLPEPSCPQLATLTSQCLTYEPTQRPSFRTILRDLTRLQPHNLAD

In the case of COCCOc1cnc(NC(C)=O)cc1Nc1cc(OC2CC2)nc(C(C)(C)F)n1 [Example 446, N-(4-((6-cyclopropoxy-2-(2-fluoropropan-2-yl)pyrimidin-4-yl)amino)-5-(2-methoxyethoxy)pyridin-2-yl)acetamide], the IC50 (JH2 domain of human Tyk2) is reported as no more than 10 nM, the IC50 (JAK2) is reported as no less than 1000 nM and the IC50 (Tyk2) is reported as no more than 10 nM. It also gave an IC50 (JAK1) of no less than 1000 nM.

CC(=O)Nc1cc(Nc2cc(C)nc(C(C)(F)F)n2)c(O)cn1 [Example 486, N-(4-((2-(1,1-difluoroethyl)-6-methylpyrimidin-4-yl)amino)-5-hydroxypyridin-2-yl)acetamide] gave an IC50 (JH2 domain of human Tyk2) of 10 to 100 nM, an IC50 (JAK2) of no less than 1000 nM and an IC50 (Tyk2) of no less than 1000 nM. For the same compound, the IC50 (JAK1) was no less than 1000 nM.

For [2H]C([2H])([2H])C([2H])([2H])Oc1cnc(NC(C)=O)cc1Nc1cc(NC2CCC2)nc(C(C)(F)F)n1 [Example 488, N-(4-((6-(cyclobutylamino)-2-(1,1-difluoroethyl)pyrimidin-4-yl)amino)-5-(ethoxy-d5)pyridin-2-yl)acetamide], the IC50 (JH2 domain of human Tyk2) was no more than 10 nM, the IC50 (JAK2) was no less than 1000 nM and the IC50 (Tyk2) was no more than 10 nM. It also gave an IC50 (JAK1) of no less than 1000 nM.

Work on [2H]C([2H])([2H])C([2H])([2H])Oc1cnc(NC(C)=O)cc1Nc1cc(OC2CC2)nc(C(C)(F)F)n1 [Example 489, N-(4-((6-cyclopropoxy-2-(1,1-difluoroethyl)pyrimidin-4-yl)amino)-5-(ethoxy-d5)pyridin-2-yl)acetamide] yielded an IC50 (JH2 domain of human Tyk2) of no more than 10 nM, an IC50 (JAK2) of no less than 1000 nM and an IC50 (Tyk2) of no more than 10 nM. It also gave an IC50 (JAK1) of no less than 1000 nM.

Compound CCOc1cnc(NC(C)=O)cc1Nc1cc(OC2CC2)nc(C(C)(F)F)n1 [Example 490, N-(4-((6-cyclopropoxy-2-(1,1-difluoroethyl)pyrimidin-4-yl)amino)-5-ethoxypyridin-2-yl)acetamide] has an IC50 (JH2 domain of human Tyk2) of no more than 10 nM, an IC50 (JAK2) of no less than 1000 nM and an IC50 (Tyk2) of no more than 10 nM. The IC50 (JAK1) was no less than 1000 nM.

[2H]C([2H])([2H])C([2H])([2H])Oc1cnc(NC(C)=O)cc1Nc1cc(CC)nc(C(C)(F)F)n1 [Example 515, N-(4-((2-(1,1-difluoroethyl)-6-ethylpyrimidin-4-yl)amino)-5-(ethoxy-d5)pyridin-2-yl)acetamide] gave an IC50 (JH2 domain of human Tyk2) of no more than 10 nM, an IC50 (JAK2) of no less than 1000 nM and an IC50 (Tyk2) of 10 to 100 nM. For the same compound, the IC50 (JAK1) was no less than 1000 nM.

In the case of COCCOc1ccc(-c2cnc(NC(C)=O)cc2Nc2cc(C)nc(C(C)(F)F)n2)nc1 [Example 522, N-(4′-((2-(1,1-difluoroethyl)-6-methylpyrimidin-4-yl)amino)-5-(2-methoxyethoxy)-[2,3′-bipyridin]-6′-yl)acetamide], the IC50 (JH2 domain of human Tyk2) is reported as no more than 10 nM, the IC50 (JAK2) is reported as no less than 1000 nM and the IC50 (Tyk2) is reported as no more than 10 nM. For the same compound, the IC50 (JAK1) was no less than 1000 nM.

Work on CC(=O)Nc1cc(Nc2cc(C)nc(C(C)(F)F)n2)c(-c2cc3n(n2)CCOC3)cn1 [Example 528, N-(4-((2-(1,1-difluoroethyl)-6-methylpyrimidin-4-yl)amino)-5-(6,7-dihydrO4H-pyrazolo[5,1-c][1,4]oxazin-2-yl)pyridin-2-yl)acetamide] yielded an IC50 (JH2 domain of human Tyk2) of no more than 10 nM, an IC50 (JAK2) of no less than 1000 nM and an IC50 (Tyk2) of no more than 10 nM. It also gave an IC50 (JAK1) of no less than 1000 nM.

For CC(=O)Nc1cc(Nc2cc(C)nc(C(C)(C)F)n2)c(-c2ccn3ncnc3n2)cn1 [Example 534, N-(5-([1,2,4]triazolo[1,5-a]pyrimidin-5-yl)-4-((2-(2-fluoropropan-2-yl)-6-methylpyrimidin-4-yl)amino)pyridin-2-yl)acetamide], the IC50 (JH2 domain of human Tyk2) was no more than 10 nM, the IC50 (JAK2) was no less than 1000 nM and the IC50 (Tyk2) was no more than 10 nM. For the same compound, the IC50 (JAK1) was no less than 1000 nM.

Work on CC(=O)Nc1cc(Nc2cc(C)nc(C34COC(C3)C4)n2)c(-c2ccn(C)n2)cn1 [Example 552, N-(4-((2-(2-oxabicyclo[2.1.1]hexan-4-yl)-6-methylpyrimidin-4-yl)amino)-5-(1-methyl-1H-pyrazol-3-yl)pyridin-2-yl)acetamide] yielded an IC50 (JH2 domain of human Tyk2) of no more than 10 nM, an IC50 (JAK2) of no less than 1000 nM and an IC50 (Tyk2) of 10 to 100 nM. The IC50 (JAK1) was no less than 1000 nM.

Compound COCc1ccc(-c2cnc(NC(C)=O)cc2Nc2cc(C)nc(C34COC(C3)C4)n2)nc1 [Example 565, N-(4′-((2-(2-oxabicyclo[2.1.1]hexan-4-yl)-6-methylpyrimidin-4-yl)amino)-5-(methoxymethyl)-[2,3′-bipyridin]-6′-yl)acetamide] has an IC50 (JH2 domain of human Tyk2) of no more than 10 nM, an IC50 (JAK2) of no less than 1000 nM and an IC50 (Tyk2) of no more than 10 nM. It also gave an IC50 (JAK1) of no less than 1000 nM.

With CCc1cc(Nc2cc(NC(C)=O)ncc2-c2ccc(COC)cn2)nc(C23COC(C2)C3)n1 [Example 566, N-(4′-((2-(2-oxabicyclo[2.1.1]hexan-4-yl)-6-ethylpyrimidin-4-yl)amino)-5-(methoxymethyl)-[2,3′-bipyridin]-6′-yl)acetamide] the IC50 (JH2 domain of human Tyk2) was no more than 10 nM, the IC50 (JAK2) was no less than 1000 nM and the IC50 (Tyk2) was no more than 10 nM. It also gave an IC50 (JAK1) of no less than 1000 nM.

CC(=O)Nc1cc(Nc2ccnc(C(C)(F)F)n2)c(-c2ccc(F)cn2)cn1 [Example 580, N-(4′-((2-(1,1-difluoroethyl)pyrimidin-4-yl)amino)-5-fluorO[2,3′-bipyridin]-6′-yl)acetamide] showed an IC50 (JH2 domain of human Tyk2) of no more than 10 nM, an IC50 (JAK2) of no less than 1000 nM and an IC50 (Tyk2) of no more than 10 nM. The IC50 (JAK1) was no less than 1000 nM.

With CCc1cc(Nc2cc(NC(C)=O)ncc2-c2coc(C)n2)nc(C(C)(F)F)n1 [Example 584, N-(4-((2-(1,1-difluoroethyl)-6-ethylpyrimidin-4-yl)amino)-5-(2-methyloxazol-4-yl)pyridin-2-yl)acetamide] the IC50 (JH2 domain of human Tyk2) was no more than 10 nM, the IC50 (JAK2) was no less than 1000 nM and the IC50 (Tyk2) was no more than 10 nM. It also gave an IC50 (JAK1) of no less than 1000 nM.

In the case of CC(=O)Nc1cc(Nc2cc(C)nc(C(C)(F)F)n2)c(-c2ccc(F)cn2)cn1 [Example 594, N-(4′-((2-(1,1-difluoroethyl)-6-methylpyrimidin-4-yl)amino)-5-fluorO[2,3′-bipyridin]-6′-yl)acetamide], the IC50 (JH2 domain of human Tyk2) is reported as no more than 10 nM, the IC50 (JAK2) is reported as no less than 1000 nM and the IC50 (Tyk2) is reported as no more than 10 nM. It also gave an IC50 (JAK1) of no less than 1000 nM.

For CC(=O)Nc1cc(Nc2cc(C)nc(C(C)(F)F)n2)c(-c2cocn2)cn1 [Example 596, N-(4-((2-(1,1-difluoroethyl)-6-methylpyrimidin-4-yl)amino)-5-(oxazol-4-yl)pyridin-2-yl)acetamide], the IC50 (JH2 domain of human Tyk2) was no more than 10 nM, the IC50 (JAK2) was no less than 1000 nM and the IC50 (Tyk2) was no more than 10 nM. It also gave an IC50 (JAK1) of no less than 1000 nM.

Work on CC(=O)Nc1cc(Nc2cc(C)nc(C(C)(F)F)n2)c(-c2cnc(F)cn2)cn1 [Example 598, N-(4-((2-(1,1-difluoroethyl)-6-methylpyrimidin-4-yl)amino)-5-(5-fluoropyrazin-2-yl)pyridin-2-yl)acetamide] yielded an IC50 (JH2 domain of human Tyk2) of no more than 10 nM, an IC50 (JAK2) of no less than 1000 nM and an IC50 (Tyk2) of 10 to 100 nM. For the same compound, the IC50 (JAK1) was no less than 1000 nM.

CC(=O)Nc1cc(Nc2cc(C)nc(C(C)(F)F)n2)c(-c2ccn(C3CC3)n2)cn1 [Example 602, N-(5-(1-cyclopropyl-1H-pyrazol-3-yl)-4-((2-(1,1-difluoroethyl)-6-methylpyrimidin-4-yl)amino)pyridin-2-yl)acetamide] was tested, and the IC50 (JH2 domain of human Tyk2) was no more than 10 nM, the IC50 (JAK2) was no less than 1000 nM and the IC50 (Tyk2) was no more than 10 nM. It also gave an IC50 (JAK1) of no less than 1000 nM.

For CC(=O)Nc1cc(Nc2cc(C)nc(C(C)(F)F)n2)c(-c2cnccn2)cn1 [Example 620, N-(4-((2-(1,1-difluoroethyl)-6-methylpyrimidin-4-yl)amino)-5-(pyrazin-2-yl)pyridin-2-yl)acetamide], the IC50 (JH2 domain of human Tyk2) was no more than 10 nM, the IC50 (JAK2) was no less than 1000 nM and the IC50 (Tyk2) was 10 to 100 nM. It also gave an IC50 (JAK1) of no less than 1000 nM.

For COCc1ccc(-c2cnc(NC(C)=O)cc2Nc2cc(C)nc(C(C)(F)F)n2)nc1 [Example 634, N-(4′-((2-(1,1-difluoroethyl)-6-methylpyrimidin-4-yl)amino)-5-(methoxymethyl)-[2,3′-bipyridin]-6′-yl)acetamide], the IC50 (JH2 domain of human Tyk2) was no more than 10 nM, the IC50 (JAK2) was no less than 1000 nM and the IC50 (Tyk2) was no more than 10 nM. For the same compound, the IC50 (JAK1) was no less than 1000 nM.
